From US6476026B1, “Compounds and compositions as protease inhibitors” (Axys Pharmaceuticals, Inc., priority 1999, dated 2002) come the findings set out here.

The compound `N#CCNC(=O)[C@H]1CCCN1C(=O)OCc1ccccc1` [Compound 50, benzyl 2R-cyanomethylcarbamoylpyrrolidine-1-carboxylate] yielded a melting point of 135 to 136 °C.

The melting point is the temperature, or range, at which the solid turns liquid.
